Laboratory results taken from patent publication US6706663B2, “Herbicidal 3-heterocyclic substituted benzisothiazole and benzisoxazole compounds” (Wyeth, priority 2000, dated 2004).

Columns and labels:
[1] = tested on: ECHORC (Echinochloa oryzoides); experiment: Flooded paddy, preemergence weed control; format: in vivo, Echinochloa oryzoides (Ard.) Fritsch.; details: rated 3-4 weeks after treatment, 0-9 rating scale
How it was run: (§1)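 Visual 0–9 ratings versus controls scored stand, vigor, malformation, size, chlorosis and overall appearance. Plants grew from seeds or propagating organs sown 0.5 cm deep in silt loam, with water held 1.5–3 cm above the soil for the whole test under greenhouse care.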

[2] = tested on: SETVI (Setaria viridis); experiment: Postemergence herbicidal evaluation; format: in vivo, (L.) Beau; details: postemergence
How it was run: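 Seedlings grown about two weeks were sprayed with compound in 50/50 acetone/water containing 0.5% TWEEN 20, at about 0.0040 to 1.000 kg/ha via nozzle at 40 psi. Plants were kept under greenhouse conditions and visually rated on a 0-9 scale versus control four to five weeks after treatment; replicate tests averaged.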

[3] = tested on: IPOHE (Ipomoea hederacea); experiment: Postemergence herbicidal evaluation; format: in vivo, (L.) Jacq.; details: postemergence
How it was run: (§2)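 Visual 0–9 injury scores versus control plants, covering stand, vigour, malformation, size, chlorosis and general appearance, taken four to five weeks post-spray and averaged over replicate tests. Plants were sprayed at roughly two weeks old and held on greenhouse benches.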

[4] = tested on: ORYSAT (Rice, Tebonnet); experiment: Postemergence herbicidal evaluation; format: in vivo, Oryza sativa, (L.) Tebonnet; details: postemergence
How it was run: as §2

[5] = tested on: ECHCG (Echinochloa crus-galli); experiment: Postemergence herbicidal evaluation; format: in vivo, (L.) Beau; details: postemergence
How it was run: as §2

[6] = tested on: CYPIR (Cyperus iria); experiment: Flooded paddy, preemergence weed control; format: in vivo; details: rated 3-4 weeks after treatment, 0-9 rating scale
How it was run: as §1

[7] = tested on: CASOB (Cassia obtusifolia); experiment: Preemergence herbicidal evaluation; format: in vivo, L.; details: rated 4-5 weeks after treatment
How it was run: (§3)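 Rating 0–9, visual, vs control; 4–5 wk after spraying seeded cups with compound in aq. acetone; conventional greenhouse care.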

[8] = tested on: AMBEL (Ambrosia artemisifolia); experiment: Preemergence herbicidal evaluation; format: in vivo, L.; details: rated 4-5 weeks after treatment
How it was run: as §3

[9] = tested on: CHEAL (Chenopodium album); experiment: Preemergence herbicidal evaluation; format: in vivo, L.; details: rated 4-5 weeks after treatment
How it was run: as §3

[10] = tested on: SAGPY (Sagittaria pygmaea); experiment: Flooded paddy, preemergence weed control; format: in vivo, L.; details: rated 3-4 weeks after treatment, 0-9 rating scale
How it was run: as §1

[11] = tested on: ABUTH (Abutilon theophrasti); experiment: Postemergence herbicidal evaluation; format: in vivo, Medic.; details: postemergence
How it was run: as §2

[12] = tested on: SETVI (Setaria viridis); experiment: Preemergence herbicidal evaluation; format: in vivo, (L.) Beau; details: rated 4-5 weeks after treatment
How it was run: as §3

[13] = tested on: ECHCG (Echinochloa crus-galli); experiment: Preemergence herbicidal evaluation; format: in vivo, (L.) Beau; details: rated 4-5 weeks after treatment
How it was run: as §3

[14] = tested on: ORYSAT (Rice, Tebonnet); experiment: Preemergence herbicidal evaluation; format: in vivo, Oryza sativa, (L.) Tebonnet; details: rated 4-5 weeks after treatment
[15] = tested on: IPOHE (Ipomoea hederacea); experiment: Preemergence herbicidal evaluation; format: in vivo, (L.) Jacq.; details: rated 4-5 weeks after treatment
[16] = tested on: ORYSAT (Rice, Tebonnet); experiment: Flooded paddy, post-transplant rice tolerance; format: in vivo, Oryza sativa, (L.) Tebonnet; details: flooded paddy, post-transplant rice, rated 3-4 weeks after treatment, 0-9 rating scale
How it was run: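 Two ten-day-old seedlings were transplanted into silt loam, flooded and held at 1.5 to 3 cm water above the soil before herbicide treatment. Pots stayed in the greenhouse at that water level. Injury was scored visually on a 0-9 scale versus untreated control.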

[17] = tested on: GLXMAW (Soybean, Williams); experiment: Postemergence herbicidal evaluation; format: in vivo, Glycine max, (L.) Merr. cv Williams; details: postemergence
How it was run: as §2

[18] = tested on: ZEAMX (Corn, Field); experiment: Postemergence herbicidal evaluation; format: in vivo, Zea mays, L.; details: postemergence
How it was run: as §2

[19] = tested on: MOOVA (Monochoria vaginalis); experiment: Flooded paddy, preemergence weed control; format: in vivo, Presl.; details: rated 3-4 weeks after treatment, 0-9 rating scale
How it was run: as §1

[20] = tested on: GALAP (Galium aparine); experiment: Postemergence herbicidal evaluation; format: in vivo; details: postemergence
How it was run: as §2

## Cn1c(C(F)(F)F)cc(=O)n(-c2ccc3snc(-c4sccc4Cl)c3c2)c1=O [Compound 52, 3-[3-(3-chloro-2-thienyl)-1,2-benzisothiazol-5-yl]-1-methyl-6-(trifluoromethyl)uracil]
[1]; rate 0.0080 kg/ha
  herbicidal rating, ECHORC: 8.5
[1]; rate 0.0320 kg/ha
  herbicidal rating, ECHORC: 9.0
[1]; rate 0.1250 kg/ha
  herbicidal rating, ECHORC: 9.0
[2]; rate 0.0320 kg/ha
  SETVI herbicidal rating: 9.0
[2]; rate 0.0620 kg/ha
  SETVI herbicidal rating: 9.0
[2]; rate 0.1250 kg/ha
  SETVI herbicidal rating: 9.0
[3]; rate 0.0320 kg/ha
  IPOHE herbicidal rating: 9.0
[3]; rate 0.0620 kg/ha
  IPOHE herbicidal rating: 9.0
[3]; rate 0.1250 kg/ha
  IPOHE herbicidal rating: 9.0
[4]; rate 0.0320 kg/ha
  ORYSAT herbicidal rating: 3.0
[4]; rate 0.0620 kg/ha
  ORYSAT herbicidal rating: 3.0
[4]; rate 0.1250 kg/ha
  ORYSAT herbicidal rating: 4.0
[5]; rate 0.0320 kg/ha
  ECHCG herbicidal rating: 0.0
[5]; rate 0.0620 kg/ha
  ECHCG herbicidal rating: 1.0
[5]; rate 0.1250 kg/ha
  ECHCG herbicidal rating: 5.0
[6]; rate 0.0080 kg/ha
  herbicidal rating, CYPIR: 9.0
[6]; rate 0.0320 kg/ha
  herbicidal rating, CYPIR: 9.0
[6]; rate 0.1250 kg/ha
  herbicidal rating, CYPIR: 9.0
[7]; Rate 0.0620 kg/ha
  Preemergence herbicidal rating CASOB: 1.0
[7]; Rate 0.1250 kg/ha
  Preemergence herbicidal rating CASOB: 1.0
[7]; Rate 0.2500 kg/ha
  Preemergence herbicidal rating CASOB: 4.0
[8]; Rate 0.0620 kg/ha
  Preemergence herbicidal rating AMBEL: 3.5
[8]; Rate 0.1250 kg/ha
  Preemergence herbicidal rating AMBEL: 8.5
[8]; Rate 0.2500 kg/ha
  Preemergence herbicidal rating AMBEL: 9.0
[9]; Rate 0.0620 kg/ha
  Preemergence herbicidal rating CHEAL: 9.0
[9]; Rate 0.1250 kg/ha
  Preemergence herbicidal rating CHEAL: 9.0
[9]; Rate 0.2500 kg/ha
  Preemergence herbicidal rating CHEAL: 9.0
[10]; rate 0.0080 kg/ha
  herbicidal rating, SAGPY: 0.0
[10]; rate 0.0320 kg/ha
  herbicidal rating, SAGPY: 3.7
[10]; rate 0.1250 kg/ha
  herbicidal rating, SAGPY: 7.7
[11]; rate 0.0320 kg/ha
  ABUTH herbicidal rating: 9.0
[11]; rate 0.0620 kg/ha
  ABUTH herbicidal rating: 9.0
[11]; rate 0.1250 kg/ha
  ABUTH herbicidal rating: 9.0
[12]; Rate 0.0620 kg/ha
  Preemergence herbicidal rating SETVI: 9.0
[12]; Rate 0.1250 kg/ha
  Preemergence herbicidal rating SETVI: 9.0
[12]; Rate 0.2500 kg/ha
  Preemergence herbicidal rating SETVI: 9.0
[13]; Rate 0.0620 kg/ha
  Preemergence herbicidal rating ECHCG: 7.5
[13]; Rate 0.1250 kg/ha
  Preemergence herbicidal rating ECHCG: 8.5
[13]; Rate 0.2500 kg/ha
  Preemergence herbicidal rating ECHCG: 9.0
[14]; Rate 0.0620 kg/ha
  Preemergence herbicidal rating ORYSAT: 1.0
[14]; Rate 0.1250 kg/ha
  Preemergence herbicidal rating ORYSAT: 1.5
[14]; Rate 0.2500 kg/ha
  Preemergence herbicidal rating ORYSAT: 3.5
[15]; Rate 0.0620 kg/ha
  Preemergence herbicidal rating IPOHE: 2.0
[15]; Rate 0.1250 kg/ha
  Preemergence herbicidal rating IPOHE: 3.0
[15]; Rate 0.2500 kg/ha
  Preemergence herbicidal rating IPOHE: 6.0
[16]; rate 0.0080 kg/ha
  herbicidal rating, ORYSAT (rice tolerance): 1.0
[16]; rate 0.0320 kg/ha
  herbicidal rating, ORYSAT (rice tolerance): 3.7
[16]; rate 0.1250 kg/ha
  herbicidal rating, ORYSAT (rice tolerance): 5.7
[17]; rate 0.0320 kg/ha
  GLXMAW herbicidal rating: 7.5
[17]; rate 0.0620 kg/ha
  GLXMAW herbicidal rating: 7.0
[17]; rate 0.1250 kg/ha
  GLXMAW herbicidal rating: 8.5
[18]; rate 0.0320 kg/ha
  ZEAMX herbicidal rating: 3.5
[18]; rate 0.0620 kg/ha
  ZEAMX herbicidal rating: 3.5
[18]; rate 0.1250 kg/ha
  ZEAMX herbicidal rating: 5.0
[19]; rate 0.0080 kg/ha
  herbicidal rating, MOOVA: 9.0
[19]; rate 0.0320 kg/ha
  herbicidal rating, MOOVA: 9.0
[19]; rate 0.1250 kg/ha
  herbicidal rating, MOOVA: 9.0
[20]; rate 0.0320 kg/ha
  GALAP herbicidal rating: 5.0
[20]; rate 0.0620 kg/ha
  GALAP herbicidal rating: 3.0
[20]; rate 0.1250 kg/ha
  GALAP herbicidal rating: 7.0

## Cn1c(C(F)(F)F)cc(=O)n(-c2ccc3snc(C4OCC(c5ccccc5)O4)c3c2)c1=O (stereo not shown) [Compound 78, 1-methyl-3-[3-(4-phenyl-1,3-dioxolan-2-yl)-1,2-benzisothiazol-5-yl]-6-(trifluoromethyl)uracil]
[1]; rate 0.0080 kg/ha
  herbicidal rating, ECHORC: 8.0
[1]; rate 0.0320 kg/ha
  herbicidal rating, ECHORC: 9.0
[1]; rate 0.1250 kg/ha
  herbicidal rating, ECHORC: 9.0
[2]; rate 0.0320 kg/ha
  SETVI herbicidal rating: 7.0
[2]; rate 0.0620 kg/ha
  SETVI herbicidal rating: 9.0
[3]; rate 0.0320 kg/ha
  IPOHE herbicidal rating: 9.0
[3]; rate 0.0620 kg/ha
  IPOHE herbicidal rating: 9.0
[4]; rate 0.0320 kg/ha
  ORYSAT herbicidal rating: 4.0
[4]; rate 0.0620 kg/ha
  ORYSAT herbicidal rating: 4.0
[5]; rate 0.0320 kg/ha
  ECHCG herbicidal rating: 2.0
[5]; rate 0.0620 kg/ha
  ECHCG herbicidal rating: 3.0
[6]; rate 0.0080 kg/ha
  herbicidal rating, CYPIR: 0.0
[6]; rate 0.0320 kg/ha
  herbicidal rating, CYPIR: 9.0
[6]; rate 0.1250 kg/ha
  herbicidal rating, CYPIR: 9.0
[7]; Rate 0.0620 kg/ha
  Preemergence herbicidal rating CASOB: 2.0
[7]; Rate 0.1250 kg/ha
  Preemergence herbicidal rating CASOB: 4.0
[7]; Rate 0.2500 kg/ha
  Preemergence herbicidal rating CASOB: 6.0
[8]; Rate 0.0620 kg/ha
  Preemergence herbicidal rating AMBEL: 9.0
[8]; Rate 0.1250 kg/ha
  Preemergence herbicidal rating AMBEL: 9.0
[8]; Rate 0.2500 kg/ha
  Preemergence herbicidal rating AMBEL: 9.0
[9]; Rate 0.0620 kg/ha
  Preemergence herbicidal rating CHEAL: 9.0
[9]; Rate 0.1250 kg/ha
  Preemergence herbicidal rating CHEAL: 9.0
[9]; Rate 0.2500 kg/ha
  Preemergence herbicidal rating CHEAL: 9.0
[10]; rate 0.0080 kg/ha
  herbicidal rating, SAGPY: 0.0
[10]; rate 0.0320 kg/ha
  herbicidal rating, SAGPY: 1.0
[10]; rate 0.1250 kg/ha
  herbicidal rating, SAGPY: 9.0
[11]; rate 0.0320 kg/ha
  ABUTH herbicidal rating: 9.0
[11]; rate 0.0620 kg/ha
  ABUTH herbicidal rating: 9.0
[12]; Rate 0.0620 kg/ha
  Preemergence herbicidal rating SETVI: 9.0
[12]; Rate 0.1250 kg/ha
  Preemergence herbicidal rating SETVI: 9.0
[12]; Rate 0.2500 kg/ha
  Preemergence herbicidal rating SETVI: 9.0
[13]; Rate 0.0620 kg/ha
  Preemergence herbicidal rating ECHCG: 8.5
[13]; Rate 0.1250 kg/ha
  Preemergence herbicidal rating ECHCG: 9.0
[13]; Rate 0.2500 kg/ha
  Preemergence herbicidal rating ECHCG: 8.0
[14]; Rate 0.0620 kg/ha
  Preemergence herbicidal rating ORYSAT: 2.0
[14]; Rate 0.1250 kg/ha
  Preemergence herbicidal rating ORYSAT: 2.5
[14]; Rate 0.2500 kg/ha
  Preemergence herbicidal rating ORYSAT: 3.0
[15]; Rate 0.0620 kg/ha
  Preemergence herbicidal rating IPOHE: 2.0
[15]; Rate 0.1250 kg/ha
  Preemergence herbicidal rating IPOHE: 5.0
[15]; Rate 0.2500 kg/ha
  Preemergence herbicidal rating IPOHE: 6.0
[16]; rate 0.0080 kg/ha
  herbicidal rating, ORYSAT (rice tolerance): 4.0
[16]; rate 0.0320 kg/ha
  herbicidal rating, ORYSAT (rice tolerance): 5.7
[16]; rate 0.1250 kg/ha
  herbicidal rating, ORYSAT (rice tolerance): 8.5
[17]; rate 0.0320 kg/ha
  GLXMAW herbicidal rating: 5.0
[17]; rate 0.0620 kg/ha
  GLXMAW herbicidal rating: 5.5
[18]; rate 0.0320 kg/ha
  ZEAMX herbicidal rating: 3.5
[18]; rate 0.0620 kg/ha
  ZEAMX herbicidal rating: 3.5
[19]; rate 0.0080 kg/ha
  herbicidal rating, MOOVA: 7.7
[19]; rate 0.0320 kg/ha
  herbicidal rating, MOOVA: 9.0
[19]; rate 0.1250 kg/ha
  herbicidal rating, MOOVA: 9.0
[20]; rate 0.0320 kg/ha
  GALAP herbicidal rating: 4.0
[20]; rate 0.0620 kg/ha
  GALAP herbicidal rating: 7.0
